# PubChem BioAssay (NCI)
#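 The compound was tested at five concentrations on cells cultured in 96-well plates, with a 48-hour exposure period. The concentration for 50% growth inhibition is given as GI50. The concentration for full growth arrest is given as TGI.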
# Tests used:
# Assay in all cases: NCI tumour cell line growth inhibition, 48 h
# [1] = tested on: SK-MEL-28 melanoma
# [2] = tested on: HCT-15 colon
# [3] = tested on: A549 NSCLC
# [4] = tested on: MDA-MB-435
# [5] = tested on: SNB-19 CNS
# [6] = tested on: COLO 205 colon
# [7] = tested on: HCT-116 colon
# [8] = tested on: 786-0 renal
# [9] = tested on: SW-620 colon
# [10] = tested on: K-562 leukemia
# [11] = tested on: OVCAR-3 ovarian
# [12] = tested on: SK-MEL-2 melanoma
# [13] = tested on: CAKI-1 renal
# [14] = tested on: BT-549 breast
# [15] = tested on: OVCAR-4 ovarian
# [16] = tested on: MOLT-4 leukemia
# [17] = tested on: TK-10 renal
# [18] = tested on: SF-539 CNS
# [19] = tested on: UACC-257 melanoma
# [20] = tested on: SF-295 CNS
# [21] = tested on: SN12C renal
# [22] = tested on: OVCAR-5 ovarian
# [23] = tested on: SK-MEL-5 melanoma
# [24] = tested on: PC-3 prostate
# [25] = tested on: SF-268 CNS
# [26] = tested on: LOX IMVI melanoma
# [27] = tested on: CCRF-CEM leukemia
# [28] = tested on: NCI-H460 lung
# [29] = tested on: ACHN renal
# [30] = tested on: HOP-92 NSCLC
# [31] = tested on: UACC-62 melanoma
# [32] = tested on: SR leukemia
# [33] = tested on: A498 renal
# [34] = tested on: IGROV1 ovarian
# [35] = tested on: HOP-62 NSCLC
# [36] = tested on: T-47D breast
# [37] = tested on: HL-60(TB) leukemia
# [38] = tested on: UO-31 renal
# [39] = tested on: SK-OV-3 ovarian
# [40] = tested on: DU-145 prostate
# [41] = tested on: MALME-3M melanoma
# [42] = tested on: MDA-MB-231 breast
# [43] = tested on: RXF 393 renal
# [44] = tested on: KM12 colon
# [45] = tested on: NCI/ADR-RES ovarian
# [46] = tested on: MCF7 breast
# [47] = tested on: NCI-H226 lung
# [48] = tested on: SNB-75 CNS
# [49] = tested on: EKVX NSCLC
# [50] = tested on: U251 CNS
# [51] = tested on: HS 578T breast
# [52] = tested on: OVCAR-8 ovarian
# [53] = tested on: RPMI-8226 leukemia
# [54] = tested on: NCI-H23 lung
# [55] = tested on: HT29 colon
# [56] = tested on: M14 melanoma
compound,measurement,setting,value
CCC(=O)[C@H](C)[C@@H](OC(=O)[C@H](C)CC)[C@H](C)[C@H]1OC(CC)=C(C)C(=O)[C@@H]1C,GI50,[1],21.2 µM
same,TGI,[1],57.4 µM
same,GI50,[2],17 µM
same,TGI,[2],42.2 µM
same,GI50,[3],30.9 µM
same,TGI,[3],> 100 µM
same,GI50,[4],21.5 µM
same,TGI,[4],56.1 µM
same,GI50,[5],42.6 µM
same,TGI,[5],> 100 µM
same,GI50,[6],14.9 µM
same,TGI,[6],29.3 µM
same,GI50,[7],9.98 µM
same,TGI,[7],72.4 µM
same,GI50,[8],25.5 µM
same,TGI,[8],84.2 µM
same,GI50,[9],24.7 µM
same,TGI,[9],62.5 µM
same,GI50,[10],39.3 µM
same,TGI,[10],> 100 µM
same,GI50,[11],17.4 µM
same,TGI,[11],36.8 µM
same,GI50,[12],24.6 µM
same,TGI,[12],50.2 µM
same,GI50,[13],21.2 µM
same,TGI,[13],52 µM
same,GI50,[14],16.6 µM
same,TGI,[14],34.9 µM
same,GI50,[15],29 µM
same,TGI,[15],> 100 µM
same,GI50,[16],19.1 µM
same,TGI,[16],53.6 µM
same,GI50,[17],30.7 µM
same,TGI,[17],88.9 µM
same,GI50,[18],18.1 µM
same,TGI,[18],33.1 µM
same,GI50,[19],33.2 µM
same,TGI,[19],> 100 µM
same,GI50,[20],21.8 µM
same,TGI,[20],43.7 µM
same,GI50,[21],15.4 µM
same,TGI,[21],29.8 µM
same,GI50,[22],15.4 µM
same,TGI,[22],48 µM
same,GI50,[23],15.3 µM
same,TGI,[23],28.8 µM
same,GI50,[24],16.8 µM
same,TGI,[24],> 100 µM
same,GI50,[25],25.3 µM
same,TGI,[25],> 100 µM
same,GI50,[26],16.9 µM
same,TGI,[26],30.5 µM
same,GI50,[27],19.7 µM
same,TGI,[27],44.8 µM
same,GI50,[28],15.7 µM
same,TGI,[28],36.2 µM
same,GI50,[29],30 µM
same,TGI,[29],> 100 µM
same,GI50,[30],23.1 µM
same,TGI,[30],62.1 µM
same,GI50,[31],13.7 µM
same,TGI,[31],27.7 µM
same,GI50,[32],13.5 µM
same,TGI,[32],42.3 µM
same,GI50,[33],25.2 µM
same,TGI,[33],73 µM
same,GI50,[34],17.1 µM
same,TGI,[34],46.7 µM
same,GI50,[35],21.2 µM
same,TGI,[35],48.1 µM
same,GI50,[36],18.1 µM
same,TGI,[36],> 100 µM
same,GI50,[37],15.3 µM
same,TGI,[37],40.3 µM
same,GI50,[38],24 µM
same,TGI,[38],66.6 µM
same,GI50,[39],37.1 µM
same,TGI,[39],> 100 µM
same,GI50,[40],23.4 µM
same,TGI,[40],68.4 µM
same,GI50,[41],19.9 µM
same,TGI,[41],42.4 µM
same,GI50,[42],13.3 µM
same,TGI,[42],30.9 µM
same,GI50,[43],21.5 µM
same,TGI,[43],46.4 µM
same,GI50,[44],19.5 µM
same,TGI,[44],52.5 µM
same,GI50,[45],18.6 µM
same,TGI,[45],55 µM
same,GI50,[46],26.3 µM
same,TGI,[46],89 µM
same,GI50,[47],16 µM
same,TGI,[47],31.6 µM
same,GI50,[48],31.8 µM
same,TGI,[48],80.3 µM
same,GI50,[49],23.9 µM
same,TGI,[49],73.9 µM
same,GI50,[50],17.6 µM
same,TGI,[50],35.8 µM
same,GI50,[51],30.3 µM
same,TGI,[51],89.3 µM
same,GI50,[52],42.4 µM
same,TGI,[52],> 100 µM
same,GI50,[53],10.1 µM
same,TGI,[53],35.1 µM
same,GI50,[54],19.6 µM
same,TGI,[54],92.4 µM
same,GI50,[55],13.4 µM
same,TGI,[55],32.8 µM
same,GI50,[56],22.8 µM
same,TGI,[56],72.5 µM
